PMC6438990 (Cellular and Molecular Gastroenterology and Hepatology, 2019)

Target: T1, SLC26A3 (DRA, down-regulated in adenoma) (Homo sapiens, UniProt P40879)
T1 sequence (P40879 1-764): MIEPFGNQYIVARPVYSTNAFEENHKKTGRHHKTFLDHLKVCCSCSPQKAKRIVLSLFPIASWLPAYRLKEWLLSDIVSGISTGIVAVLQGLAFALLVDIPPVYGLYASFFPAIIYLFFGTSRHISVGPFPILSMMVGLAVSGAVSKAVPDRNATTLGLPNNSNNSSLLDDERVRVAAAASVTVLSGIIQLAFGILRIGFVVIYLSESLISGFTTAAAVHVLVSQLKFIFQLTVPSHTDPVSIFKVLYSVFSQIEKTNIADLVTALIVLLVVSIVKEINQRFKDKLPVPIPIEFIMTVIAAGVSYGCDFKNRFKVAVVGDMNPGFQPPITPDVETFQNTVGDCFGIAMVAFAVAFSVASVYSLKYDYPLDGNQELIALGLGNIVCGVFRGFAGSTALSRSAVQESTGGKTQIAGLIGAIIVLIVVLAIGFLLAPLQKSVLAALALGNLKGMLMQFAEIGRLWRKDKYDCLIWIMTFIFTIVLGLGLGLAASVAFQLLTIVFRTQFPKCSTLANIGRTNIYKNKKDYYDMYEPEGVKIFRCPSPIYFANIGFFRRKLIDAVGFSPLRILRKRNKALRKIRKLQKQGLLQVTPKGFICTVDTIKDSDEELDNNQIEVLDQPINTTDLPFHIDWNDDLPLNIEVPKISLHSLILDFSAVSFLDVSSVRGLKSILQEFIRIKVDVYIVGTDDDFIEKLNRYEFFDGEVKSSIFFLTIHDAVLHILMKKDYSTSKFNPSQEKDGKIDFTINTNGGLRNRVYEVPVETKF
Type: cell-based

Cc1c(CC(=O)O)c(=O)oc2c(C)c(OCc3cccc(Br)c3)ccc12 [DRAinh-A250]
IC50: 120 ± 40 nM
